Source: ChEMBL document CHEMBL1201862, “PubChem BioAssay data set” (2004)
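Each compound was tested at five concentrations against cells in 96-well plates for 48 hours. GI50: concentration for 50% inhibition of growth.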 Activity calls are given as the source filed them. Rule as the data show it: active = GI50 up to about 1.1 µM and inactive = higher.

Tests used:
Assay in all cases: growth of human tumour cells (NCI), 48 h
SNB-75 = tested on: SNB-75
HCT-15 = tested on: HCT-15
NCI-H226 = tested on: NCI-H226
HCC 2998 = tested on: HCC 2998
SN12C = tested on: SN12C
ACHN = tested on: ACHN
SF-295 = tested on: SF-295
HL-60 = tested on: HL-60
OVCAR-3 = tested on: OVCAR-3
M14 = tested on: M14
MDA-MB-435 = tested on: MDA-MB-435
MDA-MB-231 = tested on: MDA-MB-231
OVCAR-8 = tested on: OVCAR-8
SK-MEL-5 = tested on: SK-MEL-5
SNB-19 = tested on: SNB-19
MCF7 = tested on: MCF7
HOP-62 = tested on: HOP-62
Malme-3M = tested on: Malme-3M
OVCAR-5 = tested on: OVCAR-5
A498 = tested on: A498

Row | Compound | GI50 (SNB-75) | GI50 (HCT-15) [µM] | GI50 (NCI-H226) | GI50 (HCC 2998) | GI50 (SN12C) | GI50 (ACHN) | GI50 (SF-295) | GI50 (HL-60) | GI50 (OVCAR-3) | GI50 (M14) | GI50 (MDA-MB-435) | GI50 (MDA-MB-231) | GI50 (OVCAR-8) | GI50 (SK-MEL-5) | GI50 (SNB-19) | GI50 (MCF7) | GI50 (HOP-62) | GI50 (Malme-3M) | GI50 (OVCAR-5) | GI50 (A498)
1 | CN1N=C(c2ccccc2)c2cc(Cl)ccc2N=C1N/N=C/c1ccc(N(C)C)cc1 | > 100 µM (inactive) | 87.7 | 58.1 µM (inactive) | > 100 µM (inactive) | > 100 µM (inactive) | > 100 µM (inactive) | > 100 µM (inactive) | 39.6 µM (inactive) | > 100 µM (inactive) | > 100 µM (inactive) | > 100 µM (inactive) | 97.7 µM (inactive) | > 100 µM (inactive) | > 100 µM (inactive) | > 100 µM (inactive) | > 100 µM (inactive) | > 100 µM (inactive) |  |  | 
2 | C=CCCC1(CCP(=O)(c2ccccc2)c2ccccc2)OCCO1 | > 100 µM (inactive) | > 100 |  | > 100 µM (inactive) | > 100 µM (inactive) | > 100 µM (inactive) | > 100 µM (inactive) | > 100 µM (inactive) | > 100 µM (inactive) | > 100 µM (inactive) | > 100 µM (inactive) | > 100 µM (inactive) | > 100 µM (inactive) | > 100 µM (inactive) | > 100 µM (inactive) | > 100 µM (inactive) | > 100 µM (inactive) | > 100 µM (inactive) | > 100 µM (inactive) | 
3 | CC(CNC(=O)c1ccccc1)(CNC(=O)c1ccccc1)[N+](=O)[O-] | 51.3 µM (inactive) | > 100 | > 100 µM (inactive) |  | > 100 µM (inactive) | > 100 µM (inactive) | > 100 µM (inactive) | > 100 µM (inactive) |  | > 100 µM (inactive) | > 100 µM (inactive) | > 100 µM (inactive) | > 100 µM (inactive) | > 100 µM (inactive) | 7.05 µM (inactive) | > 100 µM (inactive) |  | > 100 µM (inactive) | > 100 µM (inactive) | 
4 | C=CC1(c2ccc(-c3ccccc3)cc2)OCCO1 | 39.1 µM (inactive) | 29.5 | 22.9 µM (inactive) | 63.7 µM (inactive) | 76.2 µM (inactive) | > 100 µM (inactive) | > 100 µM (inactive) |  | 83.4 µM (inactive) | 59.7 µM (inactive) | 61.2 µM (inactive) | > 100 µM (inactive) | > 100 µM (inactive) | 35 µM (inactive) | 25.8 µM (inactive) | 54.6 µM (inactive) | > 100 µM (inactive) | 42.8 µM (inactive) | 64.4 µM (inactive) | 
5 | O=C1/C(=C\c2cccc(Oc3ccccc3)c2)SC(c2ccccc2)N1c1cccc(Cl)c1 (configuration not stated) |  | > 100 | > 100 µM (inactive) | > 100 µM (inactive) | > 100 µM (inactive) | > 100 µM (inactive) | > 100 µM (inactive) |  | > 100 µM (inactive) | > 100 µM (inactive) | 92.7 µM (inactive) | > 100 µM (inactive) | > 100 µM (inactive) | > 100 µM (inactive) | > 100 µM (inactive) |  | > 100 µM (inactive) | > 100 µM (inactive) | > 100 µM (inactive) | > 100 µM (inactive)
6 | COc1ccc(C2CC(=O)Oc3ccccc3O2)cc1 (configuration not stated) | > 100 µM (inactive) | > 100 | > 100 µM (inactive) | > 100 µM (inactive) | > 100 µM (inactive) | > 100 µM (inactive) | > 100 µM (inactive) | 42.8 µM (inactive) | > 100 µM (inactive) |  | 70.5 µM (inactive) | > 100 µM (inactive) | > 100 µM (inactive) | > 100 µM (inactive) | > 100 µM (inactive) | > 100 µM (inactive) | > 100 µM (inactive) |  |  | 
